Source: paper PMC3950977 (Nanotechnology, 2011)
Peptide text beside a SMILES is read from it. * marks the point of attachment. X1 = NC(=O)CCOCCOCCOCCOCCOCCOCCOCCOCCOCCOCCOCCOCCOCCOCCOCCOCCOCCOCCOCCOCCOCCOCCOCCOCCOCCOCCOCCOCCN*

Tests used:
[1] = Peptide degradation by proteinase K; format: in vitro ADME; conditions: isolated enzyme proteinase k, pH 7.1
[2] = transmission electron microscopy and dynamic light scattering; cited from earlier work

Row | SMILES | half-life [1] | diameter of self-assembled nanospheres [2]
1 | CC[C@H](C)[C@H](NC(=O)[C@@H](NC(=O)[C@@H](N)Cc1ccccc1)C(C)C)C(=O)N[C@H](C(=O)N[C@@H](CC(C)C)C(=O)N1CCC[C@H]1C(=O)N[C@@H](Cc1ccccc1)C(=O)N[C@@H](Cc1c[nH]c2ccccc12)C(=O)N[C@@H](C)C(=O)N[C@H](C(=O)N[C@@H](CC(=O)O)C(=O)N[C@@H](C)C(=O)N[C@H](C(=O)N[C@@H](C)C(=O)N[C@@H](CC(N)=O)C(=O)N[C@@H](Cc1c[nH]c2ccccc12)C(=O)N[C@@H](Cc1ccc(O)cc1)C(=O)N[C@@H](Cc1ccccc1)C(=O)NCC(=O)N[C@@H](CC(N)=O)C(=O)N[C@@H](CC(=O)O)C(=O)N[C@@H](CC(=O)O)C(=O)NCCOCCOCCOCCOCCOCCOCCOCCOCCOCCOCCOCCOCCOCCOCCOCCOCCOCCOCCOCCOCCOCCOCCOCCOCCOCCOCCOCCOCCC(N)=O)C(C)C)C(C)C)[C@@H](C)O [x4-2-9] (H-FVITLPFWAVDAVANWYFGNDD-X1) | 2.9 ± 1.2 min | –
2 | CC[C@H](C)[C@H](NC(=O)[C@@H](NC(=O)[C@H](Cc1ccccc1)NC(=O)[C@H](CC(C)C)NC(=O)[C@@H](N)CC(C)C)C(C)C)C(=O)N[C@H](C(=O)N[C@@H](CC(C)C)C(=O)N1CCC[C@H]1C(=O)N[C@@H](Cc1ccccc1)C(=O)N[C@@H](Cc1c[nH]c2ccccc12)C(=O)N[C@@H](C)C(=O)N[C@H](C(=O)N[C@@H](CC(=O)O)C(=O)N[C@@H](C)C(=O)N[C@H](C(=O)N[C@@H](C)C(=O)N[C@@H](CC(N)=O)C(=O)N[C@@H](Cc1c[nH]c2ccccc12)C(=O)N[C@@H](Cc1ccc(O)cc1)C(=O)N[C@@H](Cc1ccccc1)C(=O)NCC(=O)N[C@@H](CC(N)=O)C(=O)N[C@@H](CC(=O)O)C(=O)N[C@@H](CC(=O)O)C(=O)NCCOCCOCCOCCOCCOCCOCCOCCOCCOCCOCCOCCOCCOCCOCCOCCOCCOCCOCCOCCOCCOCCOCCOCCOCCOCCOCCOCCOCCC(N)=O)C(C)C)C(C)C)[C@@H](C)O [x4-2-6] (H-LLFVITLPFWAVDAVANWYFGNDD-X1) | 11.8 ± 1.8 min | 10 nm
